# Assay results taken from publication PMC8047011, “Enantiomers of 2-methylglutamate and 2-methylglutamine selectively impact mouse brain metabolism and behavior” (Scientific Reports, 2021).
# Assays:
# C57Bl/6 mice [1] = experiment: Morris water maze; assay type: in vivo, mouse; details: chronic 10 mg/kg/day IP, weeks 2 and 3 of testing
# Text: (§1) See Supplementary Methods for details.
# (§2) Elevated Plus Maze: The maze was made of acrylonitrile butadiene styrene (ABS) plastic and had two open arms and two close arms that were 30 cm long and 5 cm wide. The center area where the open and close arms meet was 5 cm x 5 cm. The open arms had 2 mm lips at the edges, and the closed arms had 15 cm opaque walls. The maze was elevated 50 cm and surrounded by privacy blinds during the test. The maze was illuminated to 7 lux using red light throughout the test. Each mouse was released in the center of the maze and given 5 min to explore the maze. Duration and frequency in each zone of the maze were recorded using Ethovision (Noldus Information Technology, Wageningen, the Netherlands) tracking software.
# (§3) Y Maze Spontaneous Alternation: The Y maze is made of plastic with 3 arms in a "Y" shape.
# (§4) The arms are labelled as Arm A, B, and C; Arm A is 20.32 cm (L) x 5 cm (W) 12.7 cm (H), Arm B and C are 15.24 cm (L) x 5 cm (W), and 12.7 cm (H). The test is based on the willingness of rodents to explore a novel environment and designed to measure spontaneous alternations in rodents. Each mouse was placed in the center of the maze facing Arm B. The first entry was excluded from data analysis because the animals were led to the initial arm entry by the experimenter. Using an overhead camera, the number of arm entries and alternations were recorded for 5 minutes. An arm entry is when all four paws enter into a new arm of the maze.
# The apparatus was cleaned with 1% Virkon. Parameters recorded were % alternation and the total number of entries into arms. The Y maze test was conducted after two weeks of exposure […]
# A ping pong ball was erected from the submerged platform and the mice were given two trials of Visible Platform Training to ensure they lacked gross sensorimotor deficit and visual impairment. The escape latency, distance moved, duration in zones, and velocity of the animals were recorded using Ethovision XT (Noldus Information Technology, Wageningen, Netherlands). […]
# [2] = Pharmacokinetics in mouse serum and brain; assay type: in vivo; details: 100 mg/kg IP
# Description: Pharmacokinetics on 2MeGlu and 2MeGln in mice
# C57BL/6 mice (Jackson Laboratory cat. no. 000664) were administered 100 mg/kg IP. At the times indicated, mice were deeply anesthetized by isoflurane, blood was collected by cardiac puncture and left to clot on ice, and then animals were perfused with cold PBS until viscera […]
# dissected and one half frozen at –80 °C until homogenization in ice cold PBS (pH 7.4) using a probe ultrasonic homogenizer (Branson Sonifier 450, Power: 5, Cycle: 30%, time: 10 s) on ice.
# The lysate was centrifuged (2,500g for 15 min at 4 °C) and the supernatant was assayed using Pierce BCA Protein Assay Kit (23225) using BioTek Epoch plate spectrophotometer by recording absorbance at 562 nm.
# Two or three 10 μL aliquots of the homogenate were transferred to a 96 well plate and extracted with 190 μL of 60% acetonitrile in water containing 10 μM GABA-d6 or 10 μM Glu-d5 and Gln-d5 as internal standards. 40 μL aliquots of the extracts were then diluted with 120 μL of acetonitrile and prepared for LC-MS/MS analysis. Brain and serum half-lives were calculated using the ‘PKNCA’ package for R. Endogenous levels of Glu, Gln and GABA were determined in the brains of mice used in the pharmacokinetics experiment. MRM transitions specific for Glu, Gln and GABA were monitored simultaneously. […]
# C57Bl/6 mice [3] = experiment: Elevated plus maze; assay type: in vivo, mouse; details: chronic 10 mg/kg/day IP, week 1 of testing
# Text: as §1
# as §2, with “software. […]” for “software.”
# C57Bl/6 mice [4] = experiment: Y maze spontaneous alternation; assay type: in vivo, mouse; details: chronic 10 mg/kg/day IP, week 2 of testing
# Text: as §3, §4
# The apparatus was cleaned with 1% Virkon. Parameters recorded were % alternation and the total number of entries into arms. […]
# [5] = test system: mouse cerebral synaptosomes; experiment: Potassium-induced neurotransmitter release assay; assay type: cell-based; details: preincubated with 100 μM substrate 15 min 37 °C; high-potassium KRP buffer
# Description: To each tube, 2.5 μL of a test compound solution (final concentration 100 μM) in Buffer KRP or Buffer KRP alone were added. Samples were incubated for 15 min at 37 °C, briefly chilled on ice, and then immediately centrifuged and washed twice with Buffer KRP. The resulting pellets were then resuspended in either Buffer KRP (500 μL) or Buffer K-KRP (500 μL). Samples were immediately centrifuged or incubated for 5, 10 or 15 min at 37 °C, then centrifuged and washed with Buffer KRP. Resulting pellets were resuspended in 400 μL of 60% ACN containing 2.5 μM Glu-d5 and 2.5 μM Gln-d5 as internal standards.
Structure (SMILES),Learning in the Morris water maze (C57Bl/6 mice [1]),Time of peak brain concentration [2] [min],Time spent in the open arms in the elevated plus maze (C57Bl/6 mice [3]),Spontaneous alternation in the Y maze (C57Bl/6 mice [4]),Potassium-induced release from preloaded synaptosomes [5],Maximum brain concentration [2] [pmol/mg protein],"half-life ([2]; C57BL/6, brain, estimated) [h]",Brain accumulation (with metabolite (S)-2MeGln) relative to (R)-2MeGlu [2]
"CC(N)(CCC(N)=O)C(=O)O (racemic) [rac-2MeGln, rac-2-methylglutamine]",no significant effect of treatment,25,no significant effect of treatment,no significant effect of treatment,–,–,–,–
"C[C@@](N)(CCC(=O)O)C(=O)O [(R)-2MeGlu, (R)-2-methylglutamic acid]",no significant effect of treatment,≤ 5,no significant effect of treatment,no significant effect of treatment,not significantly altered by depolarization,30,~1.17,–
"C[C@](N)(CCC(=O)O)C(=O)O [(S)-2MeGlu, (S)-2-methylglutamic acid]",no significant effect of treatment,25,no significant effect of treatment,no significant effect of treatment,released upon depolarization in a manner very similar to endogenous Glu,50,–,as much as tenfold more
